Values quoted from earlier work in patent publication US20070154935A1, “HUMAN OBESITY SUSCEPTIBILITY GENE AND USES THEREOF” (INTEGRAGEN, priority 2002, published 2007).

Key:
healthy controls = details: intranasal application
[1] = test system: massively obese child with leptin deficiency mutation; details: one child with leptin deficiency mutation

| Substance | body fat mass (healthy controls) | plasma leptin concentrations (healthy controls) | weight (healthy controls) | treatment outcome of morbid obesity [1] |
| --- | --- | --- | --- | --- |
| adrenocorticotropin4-10 (MEHFRWG; Corticotropin; UniProt P01189 141-147, looked up, fragment) [ACTH4-10] | reduced | reduced | reduced | – |
| recombinant leptin: recombinant leptin given to a child with a leptin deficiency mutation | – | – | – | treated successfully |
